# Tested on: 596521-263-R-J1-PDC complex spheroids, viability % of control
# Test: Anticancer human tumor 596521-263-R-J1-PDC patient-derived soft tissue sarcoma cell line growth inhibition [GQUAD]
# Conditions: for IC50: curve of first compound; for viability, T/C: stronger effect = lower value
# Method in brief: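 Viability of tumor cells grown as complex spheroids with endothelial and stromal cells, exposed to drug combinations. Top concentration at or near clinical Cmax (else 10 microM), diluted in half-log increments.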
# [1] = second compound 0.0316 µM, first compound 0.000999 µM
# [2] = second compound 0.0316 µM, first compound 0.00316 µM
# [3] = second compound 0.0316 µM, first compound 0.00999 µM
# [4] = second compound 0.0316 µM, first compound 0.0316 µM
# [5] = second compound 0.0316 µM, first compound 0.0999 µM
# [6] = second compound 0.0316 µM, first compound 0.316 µM
# [7] = second compound 0.1 µM, first compound 0.000999 µM
# [8] = second compound 0.1 µM, first compound 0.00316 µM
# [9] = second compound 0.1 µM, first compound 0.00999 µM
# [10] = second compound 0.1 µM, first compound 0.0316 µM
# [11] = second compound 0.1 µM, first compound 0.0999 µM
# [12] = second compound 0.1 µM, first compound 0.316 µM
# [13] = second compound 0.316 µM, first compound 0.000999 µM
# [14] = second compound 0.316 µM, first compound 0.00316 µM
# [15] = second compound 0.316 µM, first compound 0.00999 µM
# [16] = second compound 0.316 µM, first compound 0.0316 µM
# [17] = second compound 0.316 µM, first compound 0.0999 µM
# [18] = second compound 0.316 µM, first compound 0.316 µM
# [19] = second compound 1 µM, first compound 0.000999 µM
# [20] = second compound 1 µM, first compound 0.00316 µM
# [21] = second compound 1 µM, first compound 0.00999 µM
# [22] = second compound 1 µM, first compound 0.0316 µM
# [23] = second compound 1 µM, first compound 0.0999 µM
# [24] = second compound 1 µM, first compound 0.316 µM
# [25] = second compound 3.16 µM, first compound 0.000999 µM
# [26] = second compound 3.16 µM, first compound 0.00316 µM
# [27] = second compound 3.16 µM, first compound 0.00999 µM
# [28] = second compound 3.16 µM, first compound 0.0316 µM
# [29] = second compound 3.16 µM, first compound 0.0999 µM
# [30] = second compound 3.16 µM, first compound 0.316 µM
# [31] = second compound 10 µM, first compound 0.000999 µM
# [32] = second compound 10 µM, first compound 0.00316 µM
# [33] = second compound 10 µM, first compound 0.00999 µM
# [34] = second compound 10 µM, first compound 0.0316 µM
# [35] = second compound 10 µM, first compound 0.0999 µM
# [36] = second compound 10 µM, first compound 0.316 µM
# 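Note: spheroids exposed to drugs for 7 days before viability reading.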
# 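Throughout, for viability, T/C: 100% = DMSO vehicle control viability.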
compound,measurement,setting,value
CC[C@@]1(O)C(=O)OCc2c1cc1n(c2=O)Cc2cc3c(CN(C)C)c(O)ccc3nc2-1 + Cc1[nH]c2ccc(F)cc2c1-c1nc2c3cccnc3c3ncccc3c2[nH]1,IC50,second compound 0.0316 µM,> 316 nM
same,IC50,second compound 0.1 µM,> 316 nM
same,IC50,second compound 0.316 µM,291 nM
same,IC50,second compound 1 µM,> 316 nM
same,IC50,second compound 3.16 µM,277 nM
same,IC50,second compound 10 µM,> 316 nM
same,"viability, T/C",[1],98.3%
same,"viability, T/C",[2],100%
same,"viability, T/C",[3],84%
same,"viability, T/C",[4],69.5%
same,"viability, T/C",[5],64.3%
same,"viability, T/C",[6],58.7%
same,"viability, T/C",[7],103%
same,"viability, T/C",[8],99.1%
same,"viability, T/C",[9],92.5%
same,"viability, T/C",[10],65.6%
same,"viability, T/C",[11],59.6%
same,"viability, T/C",[12],53.5%
same,"viability, T/C",[13],96.8%
same,"viability, T/C",[14],103%
same,"viability, T/C",[15],90.7%
same,"viability, T/C",[16],78.5%
same,"viability, T/C",[17],61%
same,"viability, T/C",[18],49%
same,"viability, T/C",[19],103%
same,"viability, T/C",[20],109%
same,"viability, T/C",[21],79.7%
same,"viability, T/C",[22],65.7%
same,"viability, T/C",[23],58%
same,"viability, T/C",[24],51.4%
same,"viability, T/C",[25],86.4%
same,"viability, T/C",[26],84.1%
same,"viability, T/C",[27],81.6%
same,"viability, T/C",[28],67.6%
same,"viability, T/C",[29],63.2%
same,"viability, T/C",[30],48.2%
same,"viability, T/C",[31],85.5%
same,"viability, T/C",[32],89.9%
same,"viability, T/C",[33],70.4%
same,"viability, T/C",[34],59.3%
same,"viability, T/C",[35],60.9%
same,"viability, T/C",[36],50.3%
CCc1c2c(nc3ccc(O)cc13)-c1cc3c(c(=O)n1C2)COC(=O)[C@]3(O)CC + Cc1[nH]c2ccc(F)cc2c1-c1nc2c3cccnc3c3ncccc3c2[nH]1,IC50,second compound 0.0316 µM,6.02 nM
same,IC50,second compound 0.1 µM,7.91 nM
same,IC50,second compound 0.316 µM,5.32 nM
same,IC50,second compound 1 µM,8.42 nM
same,IC50,second compound 3.16 µM,4.26 nM
same,IC50,second compound 10 µM,8.37 nM
same,"viability, T/C",[1],65.8%
same,"viability, T/C",[2],54.8%
same,"viability, T/C",[3],45.7%
same,"viability, T/C",[4],34.3%
same,"viability, T/C",[5],19.2%
same,"viability, T/C",[6],9.24%
same,"viability, T/C",[7],57.3%
same,"viability, T/C",[8],61.5%
same,"viability, T/C",[9],47.4%
same,"viability, T/C",[10],31.1%
same,"viability, T/C",[11],21.5%
same,"viability, T/C",[12],7.09%
same,"viability, T/C",[13],71.4%
same,"viability, T/C",[14],54.4%
same,"viability, T/C",[15],44%
same,"viability, T/C",[16],30.1%
same,"viability, T/C",[17],16.1%
same,"viability, T/C",[18],9.37%
same,"viability, T/C",[19],67%
same,"viability, T/C",[20],58.4%
same,"viability, T/C",[21],50.3%
same,"viability, T/C",[22],29.6%
same,"viability, T/C",[23],17.5%
same,"viability, T/C",[24],7.61%
same,"viability, T/C",[25],61.8%
same,"viability, T/C",[26],52.3%
same,"viability, T/C",[27],42.1%
same,"viability, T/C",[28],31.3%
same,"viability, T/C",[29],18.8%
same,"viability, T/C",[30],8.52%
same,"viability, T/C",[31],56.8%
same,"viability, T/C",[32],59.2%
same,"viability, T/C",[33],48.6%
same,"viability, T/C",[34],29.9%
same,"viability, T/C",[35],17%
same,"viability, T/C",[36],8.36%
Cc1cccc(N(C)C(=O)C2C(O)CCN2c2nc(C)cc(C(F)(F)F)c2C#N)c1 (stereo not drawn) + Cc1[nH]c2ccc(F)cc2c1-c1nc2c3cccnc3c3ncccc3c2[nH]1,IC50,second compound 0.0316 µM,> 10000 nM
same,IC50,second compound 0.1 µM,> 10000 nM
same,IC50,second compound 0.316 µM,> 10000 nM
same,IC50,second compound 1 µM,> 10000 nM
same,IC50,second compound 3.16 µM,> 10000 nM
same,IC50,second compound 10 µM,> 10000 nM
same,"viability, T/C",[4],106%
same,"viability, T/C","second compound 0.0316 µM, first compound 0.1 µM",93.3%
same,"viability, T/C",[6],92.7%
same,"viability, T/C","second compound 0.0316 µM, first compound 1 µM",101%
same,"viability, T/C","second compound 0.0316 µM, first compound 3.16 µM",98.1%
same,"viability, T/C","second compound 0.0316 µM, first compound 10 µM",91.6%
same,"viability, T/C",[10],98.7%
same,"viability, T/C","second compound 0.1 µM, first compound 0.1 µM",99.1%
same,"viability, T/C",[12],112%
same,"viability, T/C","second compound 0.1 µM, first compound 1 µM",85.9%
same,"viability, T/C","second compound 0.1 µM, first compound 3.16 µM",104%
same,"viability, T/C","second compound 0.1 µM, first compound 10 µM",95.1%
same,"viability, T/C",[16],102%
same,"viability, T/C","second compound 0.316 µM, first compound 0.1 µM",100%
same,"viability, T/C",[18],91.4%
same,"viability, T/C","second compound 0.316 µM, first compound 1 µM",88.4%
same,"viability, T/C","second compound 0.316 µM, first compound 3.16 µM",110%
same,"viability, T/C","second compound 0.316 µM, first compound 10 µM",93.7%
same,"viability, T/C",[22],91.4%
same,"viability, T/C","second compound 1 µM, first compound 0.1 µM",89.4%
same,"viability, T/C",[24],93.9%
same,"viability, T/C","second compound 1 µM, first compound 1 µM",99.4%
same,"viability, T/C","second compound 1 µM, first compound 3.16 µM",109%
same,"viability, T/C","second compound 1 µM, first compound 10 µM",91.1%
same,"viability, T/C",[28],85.8%
same,"viability, T/C","second compound 3.16 µM, first compound 0.1 µM",92.5%
same,"viability, T/C",[30],83.1%
same,"viability, T/C","second compound 3.16 µM, first compound 1 µM",88%
same,"viability, T/C","second compound 3.16 µM, first compound 3.16 µM",93.4%
same,"viability, T/C","second compound 3.16 µM, first compound 10 µM",83.1%
same,"viability, T/C",[34],70.4%
same,"viability, T/C","second compound 10 µM, first compound 0.1 µM",73.5%
same,"viability, T/C",[36],83.8%
same,"viability, T/C","second compound 10 µM, first compound 1 µM",75%
same,"viability, T/C","second compound 10 µM, first compound 3.16 µM",83.7%
same,"viability, T/C","second compound 10 µM, first compound 10 µM",91.4%
Cn1ncnc1[C@H]1c2n[nH]c(=O)c3cc(F)cc(c23)N[C@@H]1c1ccc(F)cc1 + Cc1[nH]c2ccc(F)cc2c1-c1nc2c3cccnc3c3ncccc3c2[nH]1,IC50,second compound 0.0316 µM,> 316 nM
same,IC50,second compound 0.1 µM,> 316 nM
same,IC50,second compound 0.316 µM,> 316 nM
same,IC50,second compound 1 µM,> 316 nM
same,IC50,second compound 3.16 µM,> 316 nM
same,IC50,second compound 10 µM,> 316 nM
same,"viability, T/C",[1],89.4%
same,"viability, T/C",[2],93.6%
same,"viability, T/C",[3],90.2%
same,"viability, T/C",[4],86.6%
same,"viability, T/C",[5],95.2%
same,"viability, T/C",[6],94.7%
same,"viability, T/C",[7],101%
same,"viability, T/C",[8],98.9%
same,"viability, T/C",[9],96.7%
same,"viability, T/C",[10],110%
same,"viability, T/C",[11],94.1%
same,"viability, T/C",[12],78.1%
same,"viability, T/C",[13],95.2%
same,"viability, T/C",[14],94.2%
same,"viability, T/C",[15],97.9%
same,"viability, T/C",[16],89.5%
same,"viability, T/C",[17],80.4%
same,"viability, T/C",[18],78.4%
same,"viability, T/C",[19],94.8%
same,"viability, T/C",[20],90.9%
same,"viability, T/C",[21],88.6%
same,"viability, T/C",[22],83.5%
same,"viability, T/C",[23],85.9%
same,"viability, T/C",[24],79.5%
same,"viability, T/C",[25],89.3%
same,"viability, T/C",[26],84.5%
same,"viability, T/C",[27],84.7%
same,"viability, T/C",[28],77.7%
same,"viability, T/C",[29],81.8%
same,"viability, T/C",[30],72.6%
same,"viability, T/C",[31],73.8%
same,"viability, T/C",[32],85.6%
same,"viability, T/C",[33],86.4%
same,"viability, T/C",[34],76.5%
same,"viability, T/C",[35],72.5%
same,"viability, T/C",[36],74.3%
